Assays:
3T3-L1 cells = assay: Anti-adipocyte differentiation in 3T3-L1 cells (Oil Red O, WST-8 viability); format: cell-based; conditions: positive control, commercially available reagent, 50 μM
Protocol: [formula] formula (1) <Anti-Adipocyte Differentiation> [Reagents] • Dulbecco's modified eagle medium (DMEM): 10% FBS (fetal bovine sera) and 1% penicillin/streptomycin were added thereto. • TrypLE™ Select (1×) • IBMX: prepared to have a concentration of 0.5 mM with DMSO. • DEX: prepared to have a concentration of 1 μM with DMSO. • insulin solution human • WST-8: upon use, diluted with the DMEM medium to give a 2% WST-8. • Oil Red O: prepared to have a concentration of 5 mg/mL with isoPrOH, and upon use, diluted with pure water to give a 60% Oil Red O. [Method] • Day 1: 3T3-L1 Cells were previously cultured in a 10 cm dish to a state of 70 to 80% confluent. […] One-hundred microliters of the medium was transferred to a fresh 96-well plate, and the absorbance at 450 nm was measured with a microplate reader. Using those cells, a cell viability (%) was calculated as a relative value to the control. […] The 96-well plate was dried, 50 μL of 100% isoPrOH was added thereto, a mixture was allowed to stand at room temperature for 10 minutes, and the absorbance at 520 nm was then measured. Using those cells, an adipocyte differentiation (%) was calculated as a relative value to the control.

[1] = Antioxidant activity (DPPH radical scavenging rate); format: biochemical; conditions: positive control, commercially available reagent, 12.5 μM
Protocol: Each sample dissolved in DMSO was dissolved in a 50 v/v % EtOH, so as to prepare a sample solution having a concentration of 25, 50, and 100 μg/mL, and dispensed in each well of a 96-well plate in an amount of 100 μL each. Thereto was added 100 μL each of a DPPH solution dissolved in EtOH so as to have a concentration of 0.1 mM, and the mixture was stirred with vortex (final concentration: 12.5, 25, or 50 μg/mL). Next, the plate was made light-resistant with an aluminum foil, and allowed to stand at room temperature (25° C.) for 30 minutes, and the absorbance at 517 nm was then measured (n=3). Using the absorbance obtained, the DPPH radical scavenging rate (%) was calculated according to the following formula (1). Here, as for the blank, the absorbance was measured in the same manner as the sample solutions except that a 50 v/v % EtOH containing 0.2% DMSO was used.
The 3T3-L1 cells were detached with TrypLE™ Select, and diluted with a DMEM medium to a concentration of 1.0×10^5 cells/mL, 100 μL each of a cell suspension was then dispensed into a 96-well plate, and the cells were cultured at 37° C. under 5% CO2. • Day 3: Each sample was prepared using a differentiation and induction medium (0.1% IBMX, 0.01% DEX). […] One-hundred microliters of the medium was transferred to a fresh 96-well plate, and the absorbance at 450 nm was measured with a microplate reader. […]

SMILES | anti-adipocyte differentiation (3T3-L1 cells) | antioxidant activity [1]
O=c1c(O)c(-c2ccc(O)c(O)c2)oc2cc(O)cc(O)c12 [Quercetin] | 50% | –
O=C1O[C@H]([C@@H](O)CO)C(O)=C1O [Vitamin C] | – | 70%
